The target of this assay is T1, TGFBR2 (Homo sapiens, UniProt P37173).
T1 construct: purchased Thermo Fisher Scientific (Life Technologies) SelectScreen
Put plainly: SelectScreen LanthaScreen. It is filed as binding. To be noted: read-out: % displacement. The essentials:
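Percent values come from Thermo SelectScreen profiling of NU5455, combining activity and binding assays. CSF1R was run in Z'LYTE format at Km app ATP, and CAMK1 in Adapta format with ATP listed at 10.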

T1 sequence (P37173 23-567): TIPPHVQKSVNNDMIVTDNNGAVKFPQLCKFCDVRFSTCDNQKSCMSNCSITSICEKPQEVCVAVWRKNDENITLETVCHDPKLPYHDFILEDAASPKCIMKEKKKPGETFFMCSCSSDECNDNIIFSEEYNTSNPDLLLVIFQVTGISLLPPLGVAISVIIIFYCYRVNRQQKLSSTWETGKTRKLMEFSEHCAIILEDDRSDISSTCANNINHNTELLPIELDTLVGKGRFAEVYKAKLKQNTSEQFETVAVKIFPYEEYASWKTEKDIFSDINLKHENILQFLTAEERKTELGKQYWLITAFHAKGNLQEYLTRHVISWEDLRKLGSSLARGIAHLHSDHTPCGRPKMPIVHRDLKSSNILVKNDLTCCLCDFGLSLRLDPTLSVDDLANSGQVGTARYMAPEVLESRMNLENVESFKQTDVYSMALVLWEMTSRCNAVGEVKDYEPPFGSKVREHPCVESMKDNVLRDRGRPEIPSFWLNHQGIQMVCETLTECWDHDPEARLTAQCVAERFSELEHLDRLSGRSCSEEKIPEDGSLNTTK

`CN(C(=O)CN1CCOCC1)c1ccc2sc3c(-c4cccc5c(=O)cc(N6CC7CCC(C6)O7)oc45)cccc3c2c1` [NU5455]: the inhibition at 1 µM is -0.1%.

The values above are taken from paper PMC6934184, “Selective DNA-PKcs inhibition extends the therapeutic index of localized radiotherapy and chemotherapy” (The Journal of Clinical Investigation, 2019).
